How the values were obtained:
Type in all cases: biochemical
Details in all cases: isolated kinase, 33P-ATP
FLT3 = target: T1, FLT3 (Homo sapiens, UniProt P36888); experiment: RBC HotSpot Kinase Assay, FLT3; set-up: purchased Reaction Biology (RBC), HotSpot kinase assay
T1 sequence (P36888 27-993): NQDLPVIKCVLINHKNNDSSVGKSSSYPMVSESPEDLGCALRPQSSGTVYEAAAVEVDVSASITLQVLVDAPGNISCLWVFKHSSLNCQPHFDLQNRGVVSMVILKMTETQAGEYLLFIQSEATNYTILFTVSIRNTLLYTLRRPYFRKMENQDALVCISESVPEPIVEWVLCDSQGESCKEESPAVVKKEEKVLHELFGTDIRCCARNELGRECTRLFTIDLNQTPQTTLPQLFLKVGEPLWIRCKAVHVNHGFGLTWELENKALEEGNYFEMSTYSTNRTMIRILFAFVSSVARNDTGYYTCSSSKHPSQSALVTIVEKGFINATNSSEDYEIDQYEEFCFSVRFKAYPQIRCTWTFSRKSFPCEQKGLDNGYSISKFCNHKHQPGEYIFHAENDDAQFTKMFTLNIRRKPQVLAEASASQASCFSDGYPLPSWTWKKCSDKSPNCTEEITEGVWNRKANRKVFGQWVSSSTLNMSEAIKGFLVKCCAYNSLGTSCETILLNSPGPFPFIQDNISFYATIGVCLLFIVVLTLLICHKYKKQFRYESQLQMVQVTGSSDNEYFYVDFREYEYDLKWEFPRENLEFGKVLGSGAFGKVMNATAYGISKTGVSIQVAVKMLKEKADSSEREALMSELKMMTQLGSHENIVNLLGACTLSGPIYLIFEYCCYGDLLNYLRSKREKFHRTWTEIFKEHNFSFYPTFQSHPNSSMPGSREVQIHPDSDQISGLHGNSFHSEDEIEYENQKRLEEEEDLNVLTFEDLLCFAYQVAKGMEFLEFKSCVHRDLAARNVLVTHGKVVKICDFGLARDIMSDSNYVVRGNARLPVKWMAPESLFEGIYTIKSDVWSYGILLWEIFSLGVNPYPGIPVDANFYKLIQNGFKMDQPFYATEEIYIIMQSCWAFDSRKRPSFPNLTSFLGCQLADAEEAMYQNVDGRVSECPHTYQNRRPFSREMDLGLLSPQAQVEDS
Description: (§1) This assay uses the isolated kinase enzyme. This assay is very useful for determining competition of the inhibitor for ATP and/or substrates and for measuring the kinetics of enzyme inhibition. […] Unlike kinase binding assays that measure competition for ATP, the HotSpot Kinase Assay is a functional assay that measures catalytic activity; as such it measures relative functional potency regardless of the mechanism of enzyme inhibition. This assay uses the form of the various enzymes that are easiest to express, which may not necessarily be the form of the enzyme that exist in the cell. (Sometimes the carboxy terminus has been truncated to aid in expression, or, if it is a receptor kinase, the enzyme itself is isolated from the other parts of the receptor that are involved in regulating kinase activity.)
(§2) The reagent used was as follows: Base Reaction buffer; 20 mM Hepes (pH 7.5), 10 mM MgCl2, 1 mM EGTA, 0.01% Brij35, 0.02 mg/ml BSA, 0.1 mM Na3VO4, 2 mM DTT, 1% DMSO. Required cofactors were added individually to each kinase reaction.
(§3) The reaction procedure was as follows: • 1) Substrates were prepared in freshly prepared Reaction Buffer. • 2) Any required cofactors were delivered to the substrate solution above. • 3) Kinase was delivered into the substrate solution and gently mixed. • 4) Compounds were delivered in 100% DMSO into the kinase reaction mixture by Acoustic technology (Echo550; nanoliter range), followed by incubation for 20 min at room temp. • 5)^33P-ATP was delivered into the reaction mixture to initiate the reaction. • 6) The mixture was incubated for 2 hours at room temperature. • 7) Kinase activity was detected by P81 filter-binding method.

IRAK1 = target: T2, IRAK1 (Homo sapiens, UniProt P51617); experiment: RBC HotSpot Kinase Assay, IRAK1
T2 construct: purchased Reaction Biology (RBC), HotSpot kinase assay
T2 sequence (P51617 whole entry): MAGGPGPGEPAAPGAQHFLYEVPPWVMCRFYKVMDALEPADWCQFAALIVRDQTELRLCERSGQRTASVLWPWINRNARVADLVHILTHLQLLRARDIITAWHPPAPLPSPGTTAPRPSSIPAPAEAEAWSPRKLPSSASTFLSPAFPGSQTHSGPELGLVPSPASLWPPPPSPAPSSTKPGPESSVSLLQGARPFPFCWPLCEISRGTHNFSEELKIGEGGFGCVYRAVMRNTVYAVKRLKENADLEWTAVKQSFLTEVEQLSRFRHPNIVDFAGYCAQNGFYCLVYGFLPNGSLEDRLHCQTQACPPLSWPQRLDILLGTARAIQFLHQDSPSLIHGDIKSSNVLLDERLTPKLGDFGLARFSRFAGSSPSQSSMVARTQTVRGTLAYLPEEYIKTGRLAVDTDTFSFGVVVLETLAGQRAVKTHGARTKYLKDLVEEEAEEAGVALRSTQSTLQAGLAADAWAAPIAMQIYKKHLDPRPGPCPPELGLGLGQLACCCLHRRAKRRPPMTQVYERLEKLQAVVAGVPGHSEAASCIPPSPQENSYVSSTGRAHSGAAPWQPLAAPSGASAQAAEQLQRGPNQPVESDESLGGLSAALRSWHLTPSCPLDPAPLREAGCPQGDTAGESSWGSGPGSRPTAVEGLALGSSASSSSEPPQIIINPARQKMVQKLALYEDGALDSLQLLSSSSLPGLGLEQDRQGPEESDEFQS
Description: as §1, §2, §3

IRAK4 = target: T3, IRAK4 (Homo sapiens, UniProt Q9NWZ3); experiment: RBC HotSpot Kinase Assay, IRAK4; set-up: purchased Reaction Biology (RBC), HotSpot kinase assay
T3 sequence (Q9NWZ3 1-460): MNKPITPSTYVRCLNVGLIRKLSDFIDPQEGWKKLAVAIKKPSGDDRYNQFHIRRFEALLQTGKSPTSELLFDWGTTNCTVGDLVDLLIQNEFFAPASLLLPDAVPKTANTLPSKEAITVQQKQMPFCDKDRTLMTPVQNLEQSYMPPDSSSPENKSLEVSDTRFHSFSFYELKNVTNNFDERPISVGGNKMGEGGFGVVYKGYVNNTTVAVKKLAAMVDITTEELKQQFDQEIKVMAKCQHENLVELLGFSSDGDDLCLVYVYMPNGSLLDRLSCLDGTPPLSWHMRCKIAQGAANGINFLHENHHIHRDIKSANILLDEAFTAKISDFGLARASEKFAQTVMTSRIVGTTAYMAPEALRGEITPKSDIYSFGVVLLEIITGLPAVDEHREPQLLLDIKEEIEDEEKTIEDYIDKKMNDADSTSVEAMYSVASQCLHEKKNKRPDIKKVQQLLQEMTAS
Description: as §1, §2, §3

Compound | IC50 (FLT3) | IC50 (IRAK1) | IC50 (IRAK4)
CC1(c2cn3c(-c4cccc(N[C@H]5CNC[C@@H]5C(F)(F)F)n4)cnc3cn2)CC1 [Compound 4, 6-(6-(1-methylcyclopropyl)imidazo[1,2-a]pyrazin-3-yl)-N-((3R,4S)-4-(trifluoromethyl)pyrrolidin-3-yl)pyridin-2-amine] | 0.9 nM | 451 nM | 2 nM
CC1(c2cn3c(-c4cccc(N[C@H]5CCNC[C@@H]5F)n4)cnc3cn2)CC1 [Compound 6, N-((3S,4S)-3-fluoropiperidin-4-yl)-6-(6-(1-methylcyclopropyl)imidazo[1,2-a]pyrazin-3-yl)pyridin-2-amine] | 0.6 nM | 926 nM | 86 nM
C[C@H]1C[C@@H](Nc2cccc(-c3cnc4cnc(C5(C)CC5)cn34)n2)CCN1 [Compound 7, 6-(6-(1-methylcyclopropyl)imidazo[1,2-a]pyrazin-3-yl)-N-((2S,4S)-2-methylpiperidin-4-yl)pyridin-2-amine] | 1 nM | 3280 nM | 1020 nM
C[C@@H]1CNC[C@H](Nc2cccc(-c3cnc4cnc(C5(C(F)(F)F)CC5)cn34)n2)C1 [Compound 15, N-((3R,5S)-5-methylpiperidin-3-yl)-6-(6-(1-(trifluoromethyl)cyclopropyl)imidazo[1,2-a]pyrazin-3-yl)pyridin-2-amine] | 3 nM | 736 nM | 1020 nM
C[C@H]1C[C@@H](Nc2cccc(-c3cnc4cnc(C(F)F)cn34)n2)CCN1 [Compound 22, 6-(6-(difluoromethyl)imidazo[1,2-a]pyrazin-3-yl)-N-((2S,4S)-2-methylpiperidin-4-yl)pyridin-2-amine] | 1 nM | 474 nM | 669 nM
CC(C)(O)c1cn2c(-c3cccc(N[C@@H]4CCNC4)n3)cnc2cn1 [Compound 27, (R)-2-(3-(6-(pyrrolidin-3-ylamino)pyridin-2-yl)imidazo[1,2-a]pyrazin-6-yl)propan-2-ol] | 0.8 nM | 116 nM | 0.9 nM
C[C@H]1C[C@@H](Nc2cccc(-c3cnc4cnc(OCC(F)(F)F)cn34)n2)CCN1 [Compound 42, N-((2S,4S)-2-methylpiperidin-4-yl)-6-(6-(2,2,2-trifluoroethoxy)imidazo[1,2-a]pyrazin-3-yl)pyridin-2-amine] | 0.6 nM | 413 nM | 339 nM
FC(F)n1cc(-c2cn3c(-c4cccc(N[C@@H]5CCCNC5)n4)cnc3cn2)cn1 [Compound 44, (R)-6-(6-(1-(difluoromethyl)-1H-pyrazol-4-yl)imidazo[1,2-a]pyrazin-3-yl)-N-(piperidin-3-yl)pyridin-2-amine] | < 0.5 nM | 4280 nM | 37 nM
c1cc(N[C@@H]2CCCNC2)nc(-c2cnc3cnc(-c4cnn(C5CC5)c4)cn23)c1 [Compound 45, (R)-6-(6-(1-cyclopropyl-1H-pyrazol-4-yl)imidazo[1,2-a]pyrazin-3-yl)-N-(piperidin-3-yl)pyridin-2-amine] | < 0.5 nM | 1990 nM | 12 nM
CC(C)(O)Cn1cc(-c2cn3c(-c4cccc(N[C@@H]5CCCNC5)n4)cnc3cn2)cn1 [Compound 46, (R)-2-methyl-1-(4-(3-(6-(piperidin-3-ylamino)pyridin-2-yl)imidazo[1,2-a]pyrazin-6-yl)-1H-pyrazol-1-yl)propan-2-ol] | < 0.5 nM | 3640 nM | 8 nM
c1cc(N[C@@H]2CCCNC2)nc(-c2cnc3cnc(-c4cnn5ccccc45)cn23)c1 [Compound 47] | < 0.5 nM | 154 nM | 7 nM
FC(F)n1cc(-c2cn3c(-c4cccc(N[C@H]5CNC[C@@H]5F)n4)cnc3cn2)cn1 [Compound 53, 6-(6-(1-(difluoromethyl)-1H-pyrazol-4-yl)imidazo[1,2-a]pyrazin-3-yl)-N-((3S,4S)-4-fluoropyrrolidin-3-yl)pyridin-2-amine] | 0.6 nM | 1250 nM | 12 nM

More lines, now with the values ahead:

IC50 (FLT3) | IC50 (IRAK1) | IC50 (IRAK4) | Compound
< 0.5 nM | 150 nM | 2 nM | FC(F)c1cn2c(-c3cccc(N[C@H]4CNCC45CC5)n3)cnc2cn1 [Compound 20, (R)-N-(6-(6-(difluoromethyl)imidazo[1,2-a]pyrazin-3-yl)pyridin-2-yl)-5-azaspiro[2.4]heptan-7-amine]
< 0.5 nM | 185 nM | 7 nM | FC(F)c1cn2c(-c3cccc(N[C@H]4CNCC4(F)F)n3)cnc2cn1 [Compound 23, 6-(6-(difluoromethyl)imidazo[1,2-a]pyrazin-3-yl)-N-(4,4-difluoropyrrolidin-3-yl)pyridin-2-amine]
< 0.5 nM | 236 nM | 2 nM | CC1(C)CCNCC1Nc1cccc(-c2cnc3cnc(C(F)F)cn23)n1 (stereo not drawn) [Compound 24, 6-(6-(difluoromethyl)imidazo[1,2-a]pyrazin-3-yl)-N-(4,4-dimethylpiperidin-3-yl)pyridin-2-amine]
< 0.5 nM | 103 nM | 0.7 nM | FC(F)c1cn2c(-c3cccc(N[C@H]4CNCCC4(F)F)n3)cnc2cn1 [Compound 26, (S)-6-(6-(difluoromethyl)imidazo[1,2-a]pyrazin-3-yl)-N-(4,4-difluoropiperidin-3-yl)pyridin-2-amine]
< 0.5 nM | 385 nM | 3 nM | CC(C)(O)c1cn2c(-c3cccc(N[C@H]4CNC[C@@H](F)C4)n3)cnc2cn1 [Compound 32, 2-(3-(6-(((3R,5S)-5-fluoropiperidin-3-yl)amino)pyridin-2-yl)imidazo[1,2-a]pyrazin-6-yl)propan-2-ol]
< 0.5 nM | 273 nM | 11 nM | FC(F)(F)COc1cn2c(-c3cccc(N[C@@H]4CCCNC4)n3)cnc2cn1 [Compound 37, (R)-N-(piperidin-3-yl)-6-(6-(2,2,2-trifluoroethoxy)imidazo[1,2-a]pyrazin-3-yl)pyridin-2-amine]
< 0.5 nM | 301 nM | 8 nM | FC(F)(F)COc1cn2c(-c3cccc(N[C@H]4CNC[C@@H]4C(F)(F)F)n3)cnc2cn1 [Compound 39, 6-(6-(2,2,2-trifluoroethoxy)imidazo[1,2-a]pyrazin-3-yl)-N-((3R,4S)-4-(trifluoromethyl)pyrrolidin-3-yl)pyridin-2-amine]
< 0.5 nM | 142 nM | 110 nM | F[C@H]1CNCC[C@@H]1Nc1cccc(-c2cnc3cnc(OCC(F)(F)F)cn23)n1 [Compound 41, N-((3S,4S)-3-fluoropiperidin-4-yl)-6-(6-(2,2,2-trifluoroethoxy)imidazo[1,2-a]pyrazin-3-yl)pyridin-2-amine]
